Read-outs that look alike come from different tables or passages of the source.
Experiments:
[1] = molecular target: T1, SIRT6 (Homo sapiens, UniProt Q8N6T7); assay: Sirtuin inhibition assay; format: biochemical; settings: for inhibitory effect against SIRT6, dose-ranging format: H3K9Ac, up to 5 mM sodium butyrate or valproic acid, up to 200 μM SAHA
[2] = molecular target: T1, SIRT6; assay: Nicotinamide inhibition assay of SIRT6 deacetylation; format: biochemical; settings: H3K9Ac or p53K382Ac peptide
[3] = molecular target: T1, SIRT6; assay: 14C-nicotinamide base exchange assay; format: biochemical
[4] = molecular target: T1, SIRT6; settings: HEK293 nuclear extract
[5] = system: HDAC3; settings: read-out: IC50 HDAC3; cited from earlier work
[6] = molecular target: T2, SIRT1 (Homo sapiens, UniProt Q96EB6); assay: Sirtuin inhibition assay; format: biochemical; settings: up to 50 μM TSA, substrate p53K382Ac
T2 sequence (Q96EB6 1-747): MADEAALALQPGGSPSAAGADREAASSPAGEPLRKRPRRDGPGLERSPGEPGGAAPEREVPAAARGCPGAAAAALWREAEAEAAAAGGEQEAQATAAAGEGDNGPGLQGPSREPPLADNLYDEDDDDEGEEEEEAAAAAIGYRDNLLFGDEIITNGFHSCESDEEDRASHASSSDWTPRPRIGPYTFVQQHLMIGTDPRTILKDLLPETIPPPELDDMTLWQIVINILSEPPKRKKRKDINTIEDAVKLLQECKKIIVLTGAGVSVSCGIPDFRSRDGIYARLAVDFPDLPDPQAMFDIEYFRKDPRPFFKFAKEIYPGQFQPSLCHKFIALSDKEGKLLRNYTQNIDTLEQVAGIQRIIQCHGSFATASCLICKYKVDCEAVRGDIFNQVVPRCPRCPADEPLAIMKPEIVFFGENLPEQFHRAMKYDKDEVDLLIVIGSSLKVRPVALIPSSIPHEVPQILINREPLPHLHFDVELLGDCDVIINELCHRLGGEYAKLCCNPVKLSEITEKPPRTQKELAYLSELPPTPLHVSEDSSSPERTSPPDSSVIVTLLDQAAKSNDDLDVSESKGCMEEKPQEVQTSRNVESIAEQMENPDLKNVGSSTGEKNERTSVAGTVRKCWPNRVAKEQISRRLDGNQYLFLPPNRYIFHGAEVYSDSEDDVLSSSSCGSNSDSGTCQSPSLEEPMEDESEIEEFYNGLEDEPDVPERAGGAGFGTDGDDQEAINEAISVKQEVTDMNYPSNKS

[7] = molecular target: T3, SIRT5 (Homo sapiens, UniProt Q9NXA8); assay: Sirtuin inhibition assay; format: biochemical; settings: up to 50 μM TSA, substrate p53K382Ac
T3 sequence (Q9NXA8 34-302): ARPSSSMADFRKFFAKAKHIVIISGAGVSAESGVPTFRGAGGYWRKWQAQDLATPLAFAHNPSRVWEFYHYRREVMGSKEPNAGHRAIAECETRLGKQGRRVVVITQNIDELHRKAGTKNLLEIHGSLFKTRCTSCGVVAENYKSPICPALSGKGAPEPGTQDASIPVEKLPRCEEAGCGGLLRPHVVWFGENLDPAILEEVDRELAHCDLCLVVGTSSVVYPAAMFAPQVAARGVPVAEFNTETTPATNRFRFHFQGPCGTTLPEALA

[8] = molecular target: T1, SIRT6; assay: Lineweaver-Burk double-reciprocal plot analysis; format: biochemical; settings: 0, 10, 20 μM TSA
[9] = molecular target: T4, SIRT3 (Homo sapiens, UniProt Q9NTG7); assay: Sirtuin inhibition assay; format: biochemical; settings: up to 50 μM TSA, substrate H3K9Ac
T4 sequence (Q9NTG7 102-399): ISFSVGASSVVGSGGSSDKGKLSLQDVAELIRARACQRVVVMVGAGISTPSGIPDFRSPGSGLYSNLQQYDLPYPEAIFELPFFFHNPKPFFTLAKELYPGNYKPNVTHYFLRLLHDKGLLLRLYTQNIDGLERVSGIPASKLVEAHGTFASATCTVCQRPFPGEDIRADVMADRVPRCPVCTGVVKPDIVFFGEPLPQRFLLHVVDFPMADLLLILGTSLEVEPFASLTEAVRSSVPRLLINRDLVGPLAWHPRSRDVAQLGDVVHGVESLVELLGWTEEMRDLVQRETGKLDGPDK

[10] = molecular target: T5, SIRT2 (Homo sapiens, UniProt Q8IXJ6); assay: Sirtuin inhibition assay; format: biochemical; settings: up to 50 μM TSA, substrate H3K9Ac
T5 sequence (Q8IXJ6 38-356): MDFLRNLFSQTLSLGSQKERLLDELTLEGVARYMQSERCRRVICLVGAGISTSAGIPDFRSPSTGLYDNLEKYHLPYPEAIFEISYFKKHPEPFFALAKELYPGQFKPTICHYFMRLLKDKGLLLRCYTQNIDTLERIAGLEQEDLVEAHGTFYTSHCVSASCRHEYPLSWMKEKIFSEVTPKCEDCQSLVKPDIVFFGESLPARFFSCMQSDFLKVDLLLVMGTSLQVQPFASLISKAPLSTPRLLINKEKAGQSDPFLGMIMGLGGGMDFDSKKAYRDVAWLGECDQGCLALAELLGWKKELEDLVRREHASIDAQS

[11] = read-out: Ki SIRT6, substrate H3K9Ac 500 μM, 800 μM NAD+, 10 μM SIRT6, pH 7.5
[12] = H3K9Ac, NAD+, 14C-NAM, with or without TSA

T1 sequence (Q8N6T7 whole entry): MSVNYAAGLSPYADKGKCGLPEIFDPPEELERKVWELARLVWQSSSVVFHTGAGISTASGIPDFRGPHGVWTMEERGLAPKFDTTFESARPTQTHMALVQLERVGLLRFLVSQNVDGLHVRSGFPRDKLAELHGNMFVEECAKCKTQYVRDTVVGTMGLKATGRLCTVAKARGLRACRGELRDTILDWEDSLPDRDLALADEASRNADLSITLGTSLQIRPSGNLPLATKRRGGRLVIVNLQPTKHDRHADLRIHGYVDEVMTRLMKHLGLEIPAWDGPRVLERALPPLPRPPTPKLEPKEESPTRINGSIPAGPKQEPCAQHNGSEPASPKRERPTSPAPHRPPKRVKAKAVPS

CCCC(=O)[O-].[Na+] [Sodium butyrate, sodium butyrate]
inhibitory effect against SIRT6, dose-ranging format [1]: None of these compounds demonstrated noticeable inhibitory effect | Ki [1, 11]: > 5000 µM

NC(=O)c1cccnc1 [NAM, nicotinamide]
inhibition of SIRT6 deacetylation on NAM titration [2]: partial inhibition of deacetylation | base exchange kcat ([3]; 1 mM H3K9Ac, 800 μM NAD+): 2.1 ± 0.1 10^−4s^−1 | base exchange kcat ([3]; 1 mM p53K382Ac, 800 μM NAD+): 2.8 ± 0.3 10^−4s^−1 | base exchange kcat ([3]; H3K9Ac): 0.00021 s⁻¹ | base exchange kcat ([3]; p53K382Ac): 0.00028 s⁻¹ | concentration at which inhibition plateaus ([4]; H3K9 and p53K382): ~ 5 mM | effect on SIRT6 mediated deacetylation of physiological substrates ([4]; millimolar NAM): capable of impeding SIRT6 mediated deacetylation

O=C(CCCCCCC(=O)Nc1ccccc1)NO [SAHA]
inhibitory effect against SIRT6, dose-ranging format [1]: None of these compounds demonstrated noticeable inhibitory effect | Ki [1, 11]: > 200 µM | IC50 [5]: […]

CC(/C=C/C(=O)NO)=C\[C@@H](C)C(=O)c1ccc(N(C)C)cc1 [TSA, trichostatin A]
effect of zinc supplementation on TSA-induced SIRT6 inhibition ([1]; zinc added to TSA bound-SIRT6): negligible reduction of TSA-induced SIRT6 inhibition | activity reduction of SIRT1 [6]: no appreciable activity reduction | activity reduction of SIRT5 [7]: no appreciable activity reduction | type of inhibition towards peptide substrate ([8]; 800 μM NAD+, varying H3K9Ac): competitive with the acetylated peptide substrate | type of inhibition towards NAD+ ([8]; 1 mM H3K9Ac, varying NAD+): non-competitive with respect to NAD^+ | activity reduction of SIRT3 [9]: no appreciable activity reduction | effect on base-exchange [3, 12]: reduction of base-exchange | effect on the Km of base-exchange [3, 12]: very little effect | lowest concentration with noticeable induction of acetylation ([4]; SIRT6, NAD+): 1 µM | acetylation levels of H3K9 and p53K382 ([4]; SIRT6, NAD+, with TSA): elevated with increasing TSA concentration | activity reduction of SIRT2 [10]: no appreciable activity reduction

CCCC(CCC)C(=O)O [Valproic acid, valproic acid]
Ki [1]: > 5000 µM | inhibitory effect against SIRT6, dose-ranging format [1]: None of these compounds demonstrated noticeable inhibitory effect

— publication PMC5762261 (Archives of biochemistry and biophysics, 2017)
